pKi: −log10 of the molar value.
Experiments:
[1] = target: T1, Coagulation factor XI (Homo sapiens, UniProt P03951); assay: Binding affinity to coagulation factor 11a (unknown origin) assessed as inhibition constant using (p-Glu-Pro-Arg-pNa,HCl) as substrate preincubated for 5 mins followed by substrate addition and measured after 10 mins
[2] = target: T1, Coagulation factor XI; assay: Inhibition of coagulation factor 11a (unknown origin) at 100 uM using (p-Glu-Pro-Arg-pNa,HCl) as substrate preincubated for 5 mins followed by substrate addition and measured after 10 mins relative to control; settings: time 15.0 min
[3] = target: T1, Coagulation factor XI; assay: Inhibition of coagulation factor 11a (unknown origin) at 500 uM using (p-Glu-Pro-Arg-pNa,HCl) as substrate preincubated for 5 mins followed by substrate addition and measured after 10 mins relative to control; settings: time 15.0 min

T1 sequence (P03951 19-387 limits assumed): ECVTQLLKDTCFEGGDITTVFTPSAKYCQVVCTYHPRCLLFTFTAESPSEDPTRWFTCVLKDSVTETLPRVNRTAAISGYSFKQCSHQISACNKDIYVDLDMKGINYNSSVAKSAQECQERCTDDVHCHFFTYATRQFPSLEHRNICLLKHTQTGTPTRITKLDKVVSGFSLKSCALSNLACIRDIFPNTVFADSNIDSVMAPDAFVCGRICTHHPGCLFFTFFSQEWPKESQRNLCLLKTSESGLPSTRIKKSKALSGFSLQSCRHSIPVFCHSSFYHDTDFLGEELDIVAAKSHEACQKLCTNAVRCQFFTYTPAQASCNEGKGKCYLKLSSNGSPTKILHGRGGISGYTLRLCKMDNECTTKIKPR
T1 sequence (P03951 388-625 limits assumed): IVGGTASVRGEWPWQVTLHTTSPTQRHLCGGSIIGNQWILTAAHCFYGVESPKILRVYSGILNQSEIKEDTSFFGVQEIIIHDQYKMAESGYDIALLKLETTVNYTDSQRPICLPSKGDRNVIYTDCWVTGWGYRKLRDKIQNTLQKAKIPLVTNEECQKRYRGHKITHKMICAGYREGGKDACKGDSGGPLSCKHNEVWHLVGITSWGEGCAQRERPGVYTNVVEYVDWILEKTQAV

Cc1nc(-c2cccc(Cl)c2F)n(O)c1C(=O)N[C@@H](Cc1ccc(NC(=O)c2ncccn2)cc1)C(=O)Nc1ccc2[nH]c(C(=O)O)cc2c1
pKi [1]: 7.09

Cc1nc(-c2ccccc2)n(O)c1C(=O)N[C@@H](Cc1ccccc1)C(=O)Nc1ccc(C(=O)O)cc1
pKi [1]: < 4.00

Cc1nc(-c2cccc(C#N)c2)n(O)c1C(=O)N[C@@H](Cc1ccccc1)C(=O)Nc1ccc(C(=O)O)cc1
pKi [1]: 4.62

Cc1nc(-c2cccc(Cl)c2F)n(O)c1C(=O)N[C@@H](Cc1ccc(NC(=O)c2ccccn2)cc1)C(=O)Nc1ccc2[nH]c(C(=O)O)cc2c1
pKi [1]: 6.81

Cc1nc(-c2cccc(Cl)c2F)n(O)c1C(=O)N[C@@H](Cc1ccc(Br)cc1)C(=O)Nc1ccc2[nH]c(C(=O)O)cc2c1
pKi [1]: 6.02

Cc1nc(-c2ccc(C#N)cc2)n(O)c1C(=O)N[C@@H](Cc1ccccc1)C(=O)Nc1ccc(C(=O)O)cc1
pKi [1]: < 4.00
inhibition [2]: 0%

Cc1nc(-c2cccc(C#N)c2)n(O)c1C(=O)O
pKi [1]: 3.92

Cc1nc(-c2ccc(OCC(C)C)c(C#N)c2)n(O)c1C(=O)O
pKi [1]: < 3.30
inhibition [3]: 29.8%

Cc1nc(-c2cccc(Cl)c2F)n(O)c1C(=O)N[C@@H](Cc1ccc(Cl)cc1)C(=O)Nc1ccc2[nH]c(C(=O)O)cc2c1
pKi [1]: 6.45

Cc1nc(-c2cccc(Cl)c2F)[nH]c1C(=O)N[C@@H](Cc1ccccc1)C(=O)Nc1ccc(C(=O)O)cc1
pKi [1]: 4.58

Cc1nc(-c2cccc(Cl)c2F)n(O)c1C(=O)N[C@@H](Cc1ccc(NC(=O)c2ccccc2)cc1)C(=O)Nc1ccc2[nH]c(C(=O)O)cc2c1
pKi [1]: 6.44

COn1c(-c2cccc(Cl)c2F)nc(C)c1C(=O)N[C@@H](Cc1ccccc1)C(=O)Nc1ccc(C(=O)O)cc1
pKi [1]: < 4.00
inhibition [2]: 0%

Cc1nc(-c2cccc(Cl)c2F)n(O)c1C(=O)N[C@@H](Cc1ccc(NC(=O)C2CCCCC2)cc1)C(=O)Nc1ccc2[nH]c(C(=O)O)cc2c1
pKi [1]: 7.25

Cc1nc(-c2ccccc2C#N)n(O)c1C(=O)N[C@@H](Cc1ccccc1)C(=O)Nc1ccc(C(=O)O)cc1
pKi [1]: 4.72
inhibition [2]: 16.4%

Cc1nc(-c2cccc(Cl)c2F)n(O)c1C(=O)N[C@@H](Cc1ccc(NC(=O)C2CC2)cc1)C(=O)Nc1ccc2[nH]c(C(=O)O)cc2c1
pKi [1]: 6.59

Cc1nc(-c2cccc(Cl)c2F)n(O)c1C(=O)N[C@@H](Cc1ccccc1)C(=O)Nc1ccc(CC(=O)O)cc1
pKi [1]: 5.16

CC#CC(=O)Nc1ccc(C[C@H](NC(=O)c2c(C)nc(-c3cccc(Cl)c3F)n2O)C(=O)Nc2ccc3[nH]c(C(=O)O)cc3c2)cc1
pKi [1]: 7.51

C#CC(=O)Nc1ccc(C[C@H](NC(=O)c2c(C)nc(-c3cccc(Cl)c3F)n2O)C(=O)Nc2ccc3[nH]c(C(=O)O)cc3c2)cc1
pKi [1]: 7.28

Source: ChEMBL document CHEMBL4825671, “Design, synthesis and biological evaluation of novel FXIa inhibitors with 2-phenyl-1H-imidazole-5-carboxamide moiety as P1 fragment” (Eur J Med Chem, 2021)
